Patent US9243037B2, “Gramicidin a mutants that function as antibiotics with improved solubility and reduced toxicity” (Trustees of Boston College, priority 2011, dated 2016)
Entries after “also recorded” stand apart in the source; their conditions may differ.

Experiments:
[1] = Tb3+ leakage from liposomes, lipid not specified; type: biochemical; conditions: at peptide concentrations causing complete K+ release; in words
[2] = tested on: human red blood cells (hRBCs); assay: Haemoglobin release from human red blood cells; type: cell-based; conditions: red cells of human
In short: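 Washed fresh human RBCs at 1% (v/v) in PBS were incubated with 2-fold serial peptide dilutions (DMSO vehicle) for 1 h at 37 °C, then centrifuged. Haemoglobin in the supernatant was read at 415 nm. % hemolysis was taken relative to DMSO blank and 1% Triton X-100 complete lysis.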

[3] = Trp absorbance @ 280 nm; 10 mM PBS, pH 7.0, 1% DMSO; values taken from ref; cited from earlier work
[4] = tested on: human red blood cells (hRBCs); assay: K+ leakage from hRBCs (flame atomic emission); type: cell-based
Experimental: The rest of supernatant (1.2 mL) from each sample prepared as described in the hemoglobin leakage assay was transferred into a new sterile eppendorf tube and subject to the K+ concentration measurement using a flame-atomic emission spectrometer (λem=766.5 nm, Perkin Elmer Atomic absorption Spectrometer 3100, acetylene/air flame). Three readings were taken for each sample and averaged as final results. The fraction of K+ leakage from hRBCs was calculated as percentage K+ leaked=100·(I776.5,peptide−I776.5,DMSO)/(I776.5,complete lysis−I776.5,DMSO).

[5] = Peptide binding onto membranes (Trp fluorescence); conditions: neutral POPC vesicles; in words
[6] = tested on: Bacillus subtilis (ATCC 663)

Compound: CC(C)C[C@@H](NC(=O)[C@H](C)NC(=O)CNC(=O)[C@@H](NC=O)C(C)C)C(=O)N[C@@H](C)C(=O)N[C@@H](C(=O)N[C@H](C(=O)N[C@@H](C(=O)N[C@@H](Cc1c[nH]c2ccccc12)C(=O)N[C@H](CCCCN)C(=O)N[C@@H](Cc1c[nH]c2ccccc12)C(=O)N[C@H](CCCCN)C(=O)N[C@@H](Cc1c[nH]c2ccccc12)C(=O)N[C@H](CCCCN)C(=O)N[C@@H](Cc1c[nH]c2ccccc12)C(=O)NCCO)C(C)C)C(C)C)C(C)C (racemic) [gA-5, formyl-V-G-A-dL-A-dV-V-dV-W-dK-W-dK-W-dK-W-NHCH2CH2OH]
- Tb3+ leakage from LUVs [1]: essentially no Tb3+ leakage; also recorded: little to no difference
- HC50 (50% haemoglobin leakage relative to 1% TritonX-100) [2]: >100 µM
- Sat. Conc, Lys series [3]: 72 µM
- KC50 (50% K+ ion leakage relative to 1% TritonX-100) [4]: >100 µM
- peptide concentration for 50% K+ ion leakage, fold greater than wild-type Gramicidin A [4]: over 10^6 fold
- apparent dissociation constant (Kd) / binding [5]: no detectable binding
- MICs B. Subtilius ([6]; ATCC 663): 5 µM
- MIC relative to wild-type Gramicidin A ([6]; B. subtilis): equivalent to or ˜2-fold higher
- antibacterial activity ([6]; B. subtilis, in words): highly potent
